Experimental data published in US6495594B2, “Biologically active analogs of discodermolide” (Harbor Branch Oceanographic Institution, Inc., priority 2000, dated 2002).

Test system: purified bovine brain tubulin
Assay: Tubulin polymerization (optical density at 350 nm)
Type: biochemical
Parameters: key to Purified tubulin polymerization by 10 μM / Purified tubulin polymerization at 10 μM: −: no effect; +/−: minimal or questionable effect; +: weak effect; ++: strong effect; +++: very strong effect equivalent to discodermolide
Conditions: 10 μM compound; for Maximum polymerization relative to that induced by discodermolide / Purified tubulin polymerization at 10 μM / Purified tubulin polymerization by 10 μM: 1 mg/mL tubulin; for Purified tubulin polymerization at 10 μM / Purified tubulin polymerization by 10 μM: subjective rating; for Purified tubulin polymerization at 10 μM: Table 12; for Purified tubulin polymerization by 10 μM: Table 11
Protocol: (§1) Compounds were tested at 10 μM with 1 mg/mL tubulin. The temperature was varied during the course of the experiment as follows: the experiment was begun with an initial temperature of 4° C. and held for 1 minute; the temperature was then increased to 35° C. at a rate of 1° C./minute, held at 35° C. for 1 minute, decreased to 4° C. at a rate of 2° C/minute, and finally held at 4° C. for 14 minutes. The curves shown are for compounds: discodermolide (I); 2-desmethyldiscodermolide (II); 19-desaminocarbonyldiscodermolide (III); 2-epidiscodermolide (IV); and 3-deoxy-2A-discodermolide (VI).
as §1, with “C./minute,” for “C/minute,”, “for” for “for compounds:”, “8,21,23-hexahydrodiscodermolide (XII)” for “2-desmethyldiscodermolide (II); 19-desaminocarbonyldiscodermolide (III); 2-epidiscodermolide (IV);”, “7-deoxy-8,21,23-hexahydrodiscodermolide (XIII).” for “3-deoxy-2A-discodermolide (VI).”
Polymerization of purified bovine brain tubulin (Cytoskeleton Inc., Denver, Colo.) was followed by changes in the optical density of tubulin solutions at 350 nm in a Hitachi U-3010 spectrophotometer equipped with a SPR-10 electronic thermostatted cell holder. Stock solutions of tubulin were diluted on ice in G-PEM buffer (1 mM GTP, 80 mM PIPES, 1 mM EGTA, 0.5 mM magnesium chloride; pH 6.8) to a final concentration of 1 mg/mL. The instrument was zeroed on this solution at 4° C. Discodermolide, and its analogs, were then added to the tubulin solution to a final concentration of 10 μM, quickly mixed, and the absorbance monitored over a period of 61 minutes. Within this time the temperature of the thermoelectric cell holder was held at 4° C. for 1 minute, increased to 35° C. at a rate of 1° C./minute, reduced back to 4° C. at a rate of 2° C./minute, and held at 4° C. for an additional 14 minutes.

SMILES	Level of tubulin polymerization induced	Stability of polymerized tubulin when held at 4° C.	Maximum polymerization relative to that induced by discodermolide	Purified tubulin polymerization at 10 μM	Purified tubulin polymerization by 10 μM
CCCCC(C)C(OC(N)=O)C(C)C(O)C(C)CC(C)=CC(C)C(O)C(C)CCC(O)CC1OC(=O)C(C)C(O)C1C (stereo not shown) [8,21,23-Hexahydrodiscodermolide (XII), 8,21,23-hexahydrodiscodermolide]	strong	relatively stable	approximately 80%	+++	–
C=C/C=C\[C@H](C)[C@H](OC(N)=O)[C@@H](C)[C@H](O)[C@@H](C)C/C(C)=C\[C@H](C)[C@@H](O)[C@@H](C)/C=C\[C@@H](O)C[C@@H]1OC(=O)[C@@H](C)[C@@H](O)[C@H]1C [2-Epidiscodermolide (IV), 2-epidiscodermolide]	low levels	relatively stable	30-50%	–	++
C=CC=CC(C)C(OC(N)=O)C(C)C(O)C(C)CC(C)=CC(C)C(O)C(C)C=CC(O)CC1OC(=O)CC(O)C1C (stereo not shown) [2-Desmethyldiscodermolide (II), 2-desmethyldiscodermolide]	almost equivalent to those of the parent compound discodermolide	stable	–	–	++
CCCCC(C)C(OC(N)=O)C(C)C(O)C(C)CC(C)=CC(C)C(O)C(C)CCCCC1OC(=O)C(C)C(O)C1C (stereo not shown) [7-deoxy-8,21,23-hexahydrodiscodermolide]	low levels	relatively stable	39%	++	–
C=CC=CC(C)C(O)C(C)C(O)C(C)CC(C)=CC(C)C(O)C(C)C=CC(O)CC1OC(=O)C(C)C(O)C1C (stereo not shown) [19-Desaminocarbonyldiscodermolide (III), 19-desaminocarbonyldiscodermolide]	low levels	relatively stable	30-50%	–	+
